The values below come from patent US11136301B2, “Broad spectrum antiviral compounds and uses thereof” (The Regents Of The University Of California, priority 2015, dated 2021).

The structures appear in SMILES notation. Read-outs that look alike come from different tables or passages of the source.

In the assay the test system is wild-type HIV-1 (HIV-1LAI) in H9 cells (non-permissive). The experiment in a line: microbe, parasite or virus in culture. Format: cell-based.
Where [1] appears, read: Human immunodeficiency virus 1, H9, read-out: Antiviral activity (IC50 μM) H9 cells, Table 5, wild-type HIV-1, non-permissive H9 cells.
[2] abbreviates: Human immunodeficiency virus 1, H9, read-out: Antiviral activity (IC50 μM) H9 cells, Table 8, wild-type HIV-1, non-permissive H9 cells.
The mark [3] stands for this setting: Human immunodeficiency virus 1, H9, read-out: Antiviral activity (IC50 μM) H9 cells, wild-type HIV-1 (HIV-1LAI), H9 cells (non-permissive), RT activity in culture supernatants, compounds 1 to 50 μM.
Setting [4] is: read-out: Antiviral activity (IC50 μM) H9, Table 2, wild-type HIV-1, non-permissive H9 cells.
Where [5] appears, read: read-out: Antiviral activity (IC50 μM) H9 cells, Table 5, wild-type HIV-1, non-permissive H9 cells.
Where [6] appears, read: read-out: Antiviral activity (IC50 μM) H9 cells, Table 8, wild-type HIV-1, non-permissive H9 cells.
Where [7] appears, read: read-out: Antiviral activity (IC50 μM) H9 cells, wild-type HIV-1 (HIV-1LAI), H9 cells (non-permissive), RT activity in culture supernatants, compounds 1 to 50 μM.
Setting [8] is: Human immunodeficiency virus 1, H9, read-out: Antiviral activity (IC50 μM) H9 Cells, Table 4, wild-type HIV-1, non-permissive H9 cells.
Where [9] appears, read: Human immunodeficiency virus 1, H9, read-out: Antiviral activity (IC50 μM) H9 Cells, Table 7, wild-type HIV-1, non-permissive H9 cells.

Take `COc1ccc(Sc2ccccc2-c2cn(-c3ccccc3OC)nn2)cc1` [Compound 2cx, 1-(2-Methoxyphenyl)-4-(2-((4-methoxyphenyl)thio)phenyl)-1H-1,2,3-triazole]: the IC50 (as a rule, the concentration that inhibits the measured activity by half) by setting is: under setting [1], 13.6 µM; under setting [2], 13.6 µM; under setting [3], 13.6 µM.

Turning to `COc1ccccc1-n1cc(-c2ccccc2Sc2ccc(C(=O)O)cc2)nn1` [Compound 2gx, 2-Hydroxy-N,N,N-trimethylethanaminium 4-((2-(1-(2-methoxyphenyl)-1H-1,2,3-triazol-4-yl)phenyl)thio)benzoate], the IC50 under setting [4] was more than 50 µM, the concentration for half-maximal inhibition (IC50) under setting [5] was more than 50 µM, the concentration for half-maximal inhibition (IC50) under setting [6] was more than 50 µM and the half-inhibitory concentration (IC50) under setting [7] is more than 50 µM.

As to `COc1ccc(Sc2ccccc2-c2cn(-c3cccc(OC)c3OC)nn2)cc1` [Compound 3cx, 1-(2,3-Dimethoxyphenyl)-4-(2-((4-methoxyphenyl)thio)phenyl)-1H-1,2,3-triazole], the IC50 is 4.7 µM under setting [8]; 4.7 µM under setting [9]; 4.7 µM under setting [1]; 4.7 µM under setting [2]; 4.7 µM under setting [3].

On to `COc1cccc(-n2cc(-c3ccccc3Sc3ccc(N)cc3)nn2)c1OC` [Compound 3ex, 4-((2-(1-(2,3-Dimethoxyphenyl)-1H-1,2,3-triazol-4-yl)phenyl)thio)aniline], for which the IC50 reads like this: under setting [1], 5 µM; under setting [2], 5 µM; under setting [3], 5 µM.

As for `COc1cccc(-n2cc(-c3ccccc3Sc3ccc(C(=O)O)cc3)nn2)c1OC` [Compound 3gx, 2-Hydroxy-N,N,N-trimethylethanaminium 4-((2-(1-(2,3-dimethoxyphenyl)-1H-1,2,3-triazol-4-yl)phenyl)thio)benzoate], the IC50 was 4.3 µM under setting [4]; 4.3 µM (read-out: Antiviral activity (IC50 μM) H9 Cells, Table 4, wild-type HIV-1, non-permissive H9 cells); 4.3 µM (read-out: Antiviral activity (IC50 μM) H9 Cells, Table 7, wild-type HIV-1, non-permissive H9 cells); 4.3 µM under setting [5]; 4.3 µM under setting [6]; 4.3 µM under setting [7].

As to `COc1cccc(-n2cc(-c3ccccc3S(=O)(=O)c3ccc(C(=O)O)cc3)nn2)c1OC` [Compound 3gy, 2-Hydroxy-N,N,N-trimethylethanaminium 4-((2-(1-(2,3-dimethoxyphenyl)-1H-1,2,3-triazol-4-yl)phenyl)sulfonyl)benzoate], the IC50 under setting [4] is more than 50 µM, the IC50 under setting [5] was more than 50 µM, the half-maximal inhibitory concentration (IC50) under setting [6] was more than 50 µM and the IC50 under setting [7] was more than 50 µM.

As to `COc1ccc(-n2cc(-c3ccccc3Sc3ccc([N+](=O)[O-])cc3)nn2)c(OC)c1` [Compound 4ax, 1-(2,4-Dimethoxyphenyl)-4-(2-((4-nitrophenyl)thio)phenyl)-1H-1,2,3-triazole], the 50% inhibitory concentration (IC50) by setting is: under setting [1], more than 50 µM; under setting [2], more than 50 µM; under setting [3], more than 50 µM.

For the compound `COC(=O)c1ccc(S(=O)(=O)c2ccccc2-c2cn(-c3ccc(OC)cc3OC)nn2)cc1` [Compound 4by, Methyl 4-((2-(1-(2,4-dimethoxyphenyl)-1H-1,2,3-triazol-4-yl)phenyl)sulfonyl)benzoate], the IC50 reads like this: under setting [1], 7.6 µM; under setting [2], 7.6 µM; under setting [3], 7.6 µM.

Regarding `COc1ccc(Sc2ccccc2-c2cn(-c3ccc(OC)cc3OC)nn2)cc1` [Compound 4cx, 1-(2,4-Dimethoxyphenyl)-4-(2-((4-methoxyphenyl)thio)phenyl)-1H-1,2,3-triazole], the 50% inhibitory concentration (IC50) is more than 50 µM under setting [1], more than 50 µM under setting [2] and more than 50 µM under setting [3].

On to `COc1ccc(-n2cc(-c3ccccc3Sc3ccc(C(F)(F)F)cc3)nn2)c(OC)c1` [Compound 4dx, 1-(2,4-Dimethoxyphenyl)-4-(2-((4-(trifluoromethyl)phenyl)thio)phenyl)-1H-1,2,3-triazole], for which the IC50 was found to be 1.1 µM under setting [1], 1.1 µM under setting [2] and 1.1 µM under setting [3].

In the case of `COc1ccc(-n2cc(-c3ccccc3Sc3ccc(N)cc3)nn2)c(OC)c1` [Compound 4ex, 4-((2-(1-(2,4-Dimethoxyphenyl)-1H-1,2,3-triazol-4-yl)phenyl)thio)aniline], the IC50 was more than 50 µM under setting [1], more than 50 µM under setting [2] and more than 50 µM under setting [3].

Take `COc1ccc(-n2cc(-c3ccccc3S(=O)(=O)c3ccc(N)cc3)nn2)c(OC)c1` [Compound 4ey, 4-((2-(1-(2,4-Dimethoxyphenyl)-1H-1,2,3-triazol-4-yl)phenyl)sulfonyl)aniline]: the IC50 is more than 50 µM under setting [1], more than 50 µM under setting [2] and more than 50 µM under setting [3].

Consider `COc1ccc(-n2cc(-c3ccccc3S(=O)(=O)c3ccc(C(=O)O)cc3)nn2)c(OC)c1` [Compound 4fy, 4-((2-(1-(2,4-Dimethoxyphenyl)-1H-1,2,3-triazol-4-yl)phenyl)sulfonyl)benzoic Acid], for which the IC50 runs as follows: under setting [1], more than 50 µM; under setting [2], more than 50 µM; under setting [3], more than 50 µM.

As for `COc1ccc(-n2cc(-c3ccccc3Sc3ccc(C(=O)O)cc3)nn2)c(OC)c1` [Compound 4gx, 2-Hydroxy-N,N,N-trimethylethanaminium 4-((2-(1-(2,4-dimethoxyphenyl)-1H-1,2,3-triazol-4-yl)phenyl)thio)benzoate], the concentration for half-maximal inhibition (IC50) is more than 50 µM under setting [5], more than 50 µM under setting [6] and more than 50 µM under setting [7].

On to `COc1ccc(OC)c(-n2cc(-c3ccccc3S(=O)(=O)c3ccc(C(F)(F)F)cc3)nn2)c1` [Compound 5dy, 1-(2,5-Dimethoxyphenyl)-4-(2-((4-(trifluoromethyl)phenyl)sulfonyl)phenyl)-1H-1,2,3-triazole], for which the 50% inhibitory concentration (IC50) runs as follows: under setting [1], 4.3 µM; under setting [2], 4.3 µM; under setting [3], 4.3 µM.

`COc1ccc(OC)c(-n2cc(-c3ccccc3Sc3ccc(C(=O)O)cc3)nn2)c1` [Compound 5gx, 2-Hydroxy-N,N,N-trimethylethanaminium 4-((2-(1-(2,5-dimethoxyphenyl)-1H-1,2,3-triazol-4-yl)phenyl)thio)benzoate]: the IC50 was more than 50 µM under setting [5], more than 50 µM under setting [6] and more than 50 µM under setting [7].

Regarding `COc1cccc(OC)c1-n1cc(-c2ccccc2Sc2ccc([N+](=O)[O-])cc2)nn1` [Compound 6ax, 1-(2,6-Dimethoxyphenyl)-4-(2-((4-nitrophenyl)thio)phenyl)-1H-1,2,3-triazole], the IC50 by setting is: under setting [1], 6.3 µM; under setting [2], 6.3 µM; under setting [3], 6.3 µM.

Consider `COc1ccc(Sc2ccccc2-c2cn(-c3c(OC)cccc3OC)nn2)cc1` [Compound 6cx, 1-(2,6-Dimethoxyphenyl)-4-(2-((4-methoxyphenyl)thio)phenyl)-1H-1,2,3-triazole], for which the half-maximal inhibitory concentration (IC50) was more than 50 µM under setting [1], more than 50 µM under setting [2] and more than 50 µM under setting [3].

As for `COc1cccc(OC)c1-n1cc(-c2ccccc2Sc2ccc(C(F)(F)F)cc2)nn1` [Compound 6dx, 1-(2,6-Dimethoxyphenyl)-4-(2-((4-(trifluoromethyl)phenyl)thio)phenyl)-1H-1,2,3-triazole], the IC50 was found to be 5.3 µM under setting [1], 5.3 µM under setting [2] and 5.3 µM under setting [3].

As to `COc1cccc(OC)c1-n1cc(-c2ccccc2S(=O)(=O)c2ccc(C(F)(F)F)cc2)nn1` [Compound 6dy, 1-(2,6-Dimethoxyphenyl)-4-(2-((4-(trifluoromethyl)phenyl)sulfonyl)phenyl)-1H-1,2,3-triazole], the IC50 by setting is: under setting [1], more than 50 µM; under setting [2], more than 50 µM; under setting [3], more than 50 µM.

Consider `COc1cccc(OC)c1-n1cc(-c2ccccc2Sc2ccc(N)cc2)nn1` [Compound 6ex, 4-((2-(1-(2,6-Dimethoxyphenyl)-1H-1,2,3-triazol-4-yl)phenyl)thio)amine], for which the 50% inhibitory concentration (IC50) by setting is: under setting [8], 1.5 µM; under setting [9], 1.5 µM; under setting [1], 1.5 µM; under setting [2], 1.5 µM; under setting [3], 1.5 µM; (Human immunodeficiency virus 1, H9, read-out: IC50, anti-HIV-1 activity, non-permissive H9 cells) 1 to 3 µM.

Consider `COc1cccc(OC)c1-n1cc(-c2ccccc2Sc2ccc(C(=O)O)cc2)nn1` [Compound 6gx, 2-Hydroxy-N,N,N-trimethylethanaminium 4-((2-(1-(2,6-dimethoxyphenyl)-1H-1,2,3-triazol-4-yl)phenyl)thio)benzoate], for which the concentration for half-maximal inhibition (IC50) stood at 52 µM under setting [4], 52 µM under setting [5], 52 µM under setting [6] and 52 µM under setting [7].

`COc1cccc(OC)c1-n1cc(-c2ccccc2S(=O)(=O)c2ccc(C(=O)O)cc2)nn1` [Compound 6gy, 2-Hydroxy-N,N,N-trimethylethanaminium 4-((2-(1-(2,6-dimethoxyphenyl)-1H-1,2,3-triazol-4-yl)phenyl)sulfonyl)benzoate]: the IC50 under setting [4] was more than 50 µM, the IC50 under setting [5] is more than 50 µM, the half-maximal inhibitory concentration (IC50) under setting [6] is more than 50 µM and the IC50 under setting [7] is more than 50 µM.

As for `COC(=O)c1ccc(S(=O)(=O)c2ccccc2-c2cn(-c3c(F)cccc3OC)nn2)cc1` [Compound 7by, Methyl 4-((2-(1-(2-fluoro-6-methoxyphenyl)-1H-1,2,3-triazol-4-yl)phenyl)sulfonyl)benzoate], the concentration for half-maximal inhibition (IC50) under setting [1] was more than 50 µM, the IC50 under setting [2] is more than 50 µM and the IC50 under setting [3] is more than 50 µM.
